Assay results published in patent US20230416329A1, “A PEPTIDE WITH DISULFIDE BONDS AND INHIBITORY ACTIVITY AGAINST SERINE PROTEASES, DERIVED HYBRID PEPTIDES THEREOF, AND USES THEREOF” (INSTITUTE OF MATERIA MEDICA , CHINESE ACADEMY OF MEDICAL …, priority 2020, published 2023).
Where two headings read alike, the source gives them in different places.

Key:
DPP-IV = DPP-IV (Homo sapiens, UniProt P27487); assay: Tolerance of GLP-1 and its analogues to DPP-IV (RP-HPLC remaining peak area); type: in vitro ADME; conditions: peptide 25 μM, DPP-IV 0.5 ng/μL, 37° C.; for Remaining peak area (%)/DPP-IV: 0.0 h; for remaining at 0.5 h, 25 μM / remaining at 2 h, 25 μM / remaining at 4 h, 25 μM / remaining at 8 h, 25 μM / remaining at 12 h, 25 μM: isolated DPP-IV enzyme in buffer, pH 8
Description: (§1) Mix by centrifugation at 8000 rpm for 30 seconds.
(2) Arrange a certain volume of 0.005 μg/μL DPP-IV solution in another sterile EP.

NEP24.11 = NEP24.11 (Homo sapiens, UniProt P08473); assay: Tolerance of GLP-1 and its analogues to NEP24.11 (RP-HPLC remaining peak area); type: in vitro ADME; conditions: peptide 30 μM, NEP24.11 1.0 ng/μL; for Remaining peak area (%)/NEP24.11: 0.0 h; for remaining at 0.5 h, 30 μM / remaining at 2 h, 30 μM / remaining at 4 h, 30 μM / remaining at 8 h, 30 μM: isolated NEP24.11 enzyme in buffer; for remaining at 0.5 h, 30 μM: pH 7.4, 0.5 h; for remaining at 2 h, 30 μM: pH 7.4, 2.0 h; for remaining at 4 h, 30 μM: pH 7.4, 4.0 h
Description: as §1
Arrange a certain volume of 0.04 μg/μL NEP24.11 enzyme solution in another sterile EP.

trypsin = target: T1, trypsin (Bos taurus, UniProt P00760); assay: in vitro; conditions: isolated enzyme trypsin, pH 7.8
T1 sequence (P00760 24-246): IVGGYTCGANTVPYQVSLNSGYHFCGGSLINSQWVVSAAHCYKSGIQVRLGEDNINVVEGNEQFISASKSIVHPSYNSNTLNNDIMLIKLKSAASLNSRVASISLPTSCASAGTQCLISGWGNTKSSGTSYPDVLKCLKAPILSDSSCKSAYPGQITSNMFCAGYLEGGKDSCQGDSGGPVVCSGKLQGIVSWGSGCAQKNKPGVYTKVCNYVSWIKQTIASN
Procedure, shortened: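 Remaining RP-HPLC peak area tracks undigested peptide over time. Samples were quenched with 10% TFA at time points between 1.5 and 60 min during 37 °C digestion. Trypsin was added from a 0.05 μg/μL solution after 5 min of thermal equilibration.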

chymotrypsin = chymotrypsin (Bos taurus, UniProt P00766); assay: in vitro; conditions: isolated enzyme chymotrypsin, pH 7.8, Remaining peak area (%)/chymotrypsin
Procedure, shortened: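 RP-HPLC peak area tracked intact peptide after 37 °C digestion with chymotrypsin (0.05 μg/μL solution, 5 min preincubation). Samples were withdrawn at 1.5-60.0 min and stopped with 10% TFA.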

[1] = Stability of GLP-1 and its analogues in human serum; conditions: 25% (v/v) human serum; for Remaining peak area (%)/human serum: 0.0 h, peptide 0.03 mM, 37° C.; for remaining at 0.5 h, 0.03 mM / remaining at 2 h, 0.03 mM / remaining at 4 h, 0.03 mM / remaining at 8 h, 0.03 mM / remaining at 12 h, 0.03 mM: human, pH 7
Description: The amount of the prototype peptide at 0 h was taken as 100%. At different time point, 100 μL aliquots was taken out, and 300 μL precooled anhydrous methanol was added to terminate the reaction. The remaining percentage (%) of the peptide relative to the prototype peptide at that time point was analyzed by reverse phase high performance liquid chromatography. The experiment was performed with three replicates, and data were expressed as “mean±standard deviation”. The sample was subjected to high-speed centrifugation, supernatant extraction, and freeze drying, followed by dissolution in 50% (v/v) methanol/water solution, and analyzed by reverse phase high performance liquid chromatography. The experiment was performed with three replicates, and data were expressed as “mean±standard deviation”.
Invert and mix thoroughly, then leave at −20° C. overnight. At the same time, take three sterile EP tubes and add 25 μL of human serum, 75 μL of 50 mM Tris-HCl buffer (pH7.0), and 300 μL of pre-cold absolute methanol. Invert and mix thoroughly, then leave at −20° C. overnight as a negative control, so as to eliminate the interference of proteins or peptides contained in human serum at the peak time of the target peptide after methanol precipitation.
Arrange a certain volume of human serum in another sterile EP. Incubate the EP tubes containing peptides and serum at 37° C. for 10 min, and add 137.5 μL of human serum to each EP tube containing peptides and mix well. […] Start timing and remove 100 μL of reaction solution at 0.5, 2.0, 4.0, 8.0, and 12.0 h later, respectively. Add 300 μL of pre-cold absolute methanol. Invert and mix thoroughly, then leave at −20° C. overnight. […] There are three replicates at each time point, and the peak area of the peptide at each time point is detected using reverse phase high-performance liquid chromatography (RP-HPLC). The ratio of the remaining peak area of the sample at detection time T (h) to the peak area of the prototype peptide at 0 h is calculated as the remaining percentage (%) of the peptide.

[2] = pH 7.4, 8.0 h, 37° C., read-out: Remaining peak area (%)/NEP24.11

Chain of NEP24.11 (P08473 whole entry): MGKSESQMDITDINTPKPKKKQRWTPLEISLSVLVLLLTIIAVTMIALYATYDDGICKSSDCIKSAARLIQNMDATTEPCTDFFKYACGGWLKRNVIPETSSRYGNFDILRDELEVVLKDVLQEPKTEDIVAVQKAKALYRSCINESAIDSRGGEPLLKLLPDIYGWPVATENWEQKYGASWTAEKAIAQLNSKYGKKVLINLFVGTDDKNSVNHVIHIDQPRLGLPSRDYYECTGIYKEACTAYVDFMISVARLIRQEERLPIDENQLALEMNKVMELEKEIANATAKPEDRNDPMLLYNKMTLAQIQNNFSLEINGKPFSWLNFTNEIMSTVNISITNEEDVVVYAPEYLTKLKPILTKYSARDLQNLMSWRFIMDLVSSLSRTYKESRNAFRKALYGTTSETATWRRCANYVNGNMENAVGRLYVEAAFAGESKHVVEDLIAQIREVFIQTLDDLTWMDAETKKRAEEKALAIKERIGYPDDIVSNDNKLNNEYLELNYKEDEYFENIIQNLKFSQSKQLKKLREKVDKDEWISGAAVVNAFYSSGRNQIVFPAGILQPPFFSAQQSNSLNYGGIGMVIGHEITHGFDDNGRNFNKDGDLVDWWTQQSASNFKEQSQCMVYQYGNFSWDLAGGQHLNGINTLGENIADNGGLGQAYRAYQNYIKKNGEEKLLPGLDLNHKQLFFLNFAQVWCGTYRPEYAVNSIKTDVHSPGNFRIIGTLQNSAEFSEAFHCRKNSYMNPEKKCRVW
Chain of DPP-IV (P27487 whole entry, species assumed): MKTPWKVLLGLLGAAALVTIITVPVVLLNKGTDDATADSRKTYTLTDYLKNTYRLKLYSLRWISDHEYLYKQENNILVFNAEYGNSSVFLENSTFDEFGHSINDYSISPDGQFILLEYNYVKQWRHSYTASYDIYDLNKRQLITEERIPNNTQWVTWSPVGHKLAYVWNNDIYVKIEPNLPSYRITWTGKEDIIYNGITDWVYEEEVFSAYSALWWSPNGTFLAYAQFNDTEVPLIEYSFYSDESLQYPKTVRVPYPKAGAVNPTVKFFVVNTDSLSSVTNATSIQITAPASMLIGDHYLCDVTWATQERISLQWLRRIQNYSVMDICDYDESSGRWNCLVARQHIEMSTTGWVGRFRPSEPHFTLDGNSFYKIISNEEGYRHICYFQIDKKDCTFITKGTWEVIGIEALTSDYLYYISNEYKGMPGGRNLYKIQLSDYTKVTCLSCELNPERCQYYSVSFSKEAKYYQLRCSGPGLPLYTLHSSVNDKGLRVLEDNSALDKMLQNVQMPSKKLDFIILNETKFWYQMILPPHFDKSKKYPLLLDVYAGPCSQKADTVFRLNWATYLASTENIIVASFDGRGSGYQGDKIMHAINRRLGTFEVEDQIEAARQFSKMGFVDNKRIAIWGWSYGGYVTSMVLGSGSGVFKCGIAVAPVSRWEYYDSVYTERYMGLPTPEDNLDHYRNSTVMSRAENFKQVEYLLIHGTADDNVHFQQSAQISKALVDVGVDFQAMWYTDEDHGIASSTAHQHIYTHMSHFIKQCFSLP

Compound	Remaining peak area (%)/DPP-IV (DPP-IV)	remaining at 0.5 h, 25 μM (DPP-IV)	remaining at 2 h, 25 μM (DPP-IV)	remaining at 4 h, 25 μM (DPP-IV)	remaining at 8 h, 25 μM (DPP-IV)	remaining at 12 h, 25 μM (DPP-IV)	Remaining peak area (%)/NEP24.11 (NEP24.11; 37° C.)	remaining at 0.5 h, 30 μM (NEP24.11; 37° C.)	remaining at 2 h, 30 μM (NEP24.11; 37° C.)	remaining at 4 h, 30 μM (NEP24.11; 37° C.)	remaining at 8 h, 30 μM (NEP24.11; [2])	remaining at 0.025 h, 60 μM (trypsin)	remaining at 0.05 h, 60 μM (trypsin)	remaining at 0.075 h, 60 μM (trypsin)	remaining at 0.1 h, 60 μM (trypsin)	remaining at 0.15 h, 60 μM (trypsin)	remaining at 0.25 h, 60 μM (trypsin)	remaining at 0.5 h, 60 μM (trypsin)	remaining at 1 h, 60 μM (trypsin)	remaining at 0.025 h, 60 μM (chymotrypsin)	also measured
CC[C@H](C)[C@H](NC(=O)[C@H](Cc1ccccc1)NC(=O)[C@H](CCC(=O)O)NC(=O)[C@H](CCCCN)NC(=O)[C@H](C)NC(=O)[C@H](C)NC(=O)[C@H](CCC(N)=O)NC(=O)CNC(=O)[C@H](CCC(=O)O)NC(=O)[C@H](CC(C)C)NC(=O)[C@H](Cc1ccc(O)cc1)NC(=O)[C@H](CO)NC(=O)[C@H](CO)NC(=O)[C@@H](NC(=O)[C@H](CC(=O)O)NC(=O)[C@H](CO)NC(=O)[C@@H](NC(=O)[C@H](Cc1ccccc1)NC(=O)[C@@H](NC(=O)CNC(=O)[C@H](CCC(=O)O)NC(=O)[C@H](C)NC(=O)[C@H](Cc1c[nH]cn1)NC(=O)CNC(=O)CNC(=O)[C@@H](NC(=O)[C@@H]1CCCN1C(=O)[C@@H](NC(=O)CN)[C@@H](C)CC)[C@@H](C)CC)[C@@H](C)O)[C@@H](C)O)C(C)C)C(=O)N[C@@H](C)C(=O)N[C@@H](Cc1c[nH]c2ccccc12)C(=O)N[C@@H](CC(C)C)C(=O)N[C@H](C(=O)N[C@@H](CCCCN)C(=O)NCC(=O)N[C@@H](CCCNC(=N)N)C(=O)NCC(=O)NCC(=O)N[C@@H](CCCCN)C(=O)NCC(=O)N[C@@H](CCCNC(=N)N)C(=O)N[C@H]1CSSC[C@@H](C(=O)N[C@@H](Cc2ccccc2)C(=O)N2CCC[C@H]2C(=O)O)NC(=O)[C@H]([C@@H](C)CC)NC(=O)[C@@H]2CCCN2C(=O)[C@@H]2CCCN2C(=O)[C@H]([C@@H](C)CC)NC(=O)[C@H](CO)NC(=O)[C@H](CCCCN)NC(=O)[C@H]([C@@H](C)O)NC1=O)C(C)C [D-GLP-1-BT1]	100.0 ± 0.0%	88 ± 6.2%	95.9 ± 2.3%	96.9 ± 2%	92 ± 3.9%	79 ± 4.6%	100.0 ± 0.0%	80.3 ± 3.6%	85.8 ± 2.7%	80.1 ± 2.1%	78.2 ± 3.9%	96.9 ± 3.1%	100 ± 2.5%	96.5 ± 2.1%	97.3 ± 3.6%	98 ± 3.1%	95.9 ± 3.2%	98.1 ± 4.4%	91 ± 7.6%	67.1 ± 4.9%	remaining at 8 h, 30 μM (NEP24.11; pH 7.4, 8 hours, read-out: remaining amount after NEP24.11 hydrolysis): ~80%; remaining at 0.05 h, 60 μM (chymotrypsin): 55.2 ± 0.6%; remaining at 0.075 h, 60 μM (chymotrypsin): 47.1 ± 1.4%; remaining at 0.1 h, 60 μM (chymotrypsin): 40.4 ± 1%; remaining at 0.15 h, 60 μM (chymotrypsin): 31.3 ± 0.7%; Remaining peak area (%)/human serum [1]: 100.0 ± 0.0%; serum stability (in words) [1]: good serum stability; remaining at 0.5 h, 0.03 mM [1]: 88.2%; remaining at 2 h, 0.03 mM [1]: 92 ± 5.9%; remaining at 4 h, 0.03 mM [1]: 78.7 ± 5.7%; remaining at 8 h, 0.03 mM [1]: 58.2%; remaining at 12 h, 0.03 mM [1]: 43.6 ± 0.3%
CC[C@H](C)[C@H](NC(=O)[C@H](Cc1ccccc1)NC(=O)[C@H](CCC(=O)O)NC(=O)[C@H](CCCCN)NC(=O)[C@H](C)NC(=O)[C@H](C)NC(=O)[C@H](CCC(N)=O)NC(=O)CNC(=O)[C@H](CCC(=O)O)NC(=O)[C@H](CC(C)C)NC(=O)[C@H](Cc1ccc(O)cc1)NC(=O)[C@H](CO)NC(=O)[C@H](CO)NC(=O)[C@@H](NC(=O)[C@H](CC(=O)O)NC(=O)[C@H](CO)NC(=O)[C@@H](NC(=O)[C@H](Cc1ccccc1)NC(=O)[C@@H](NC(=O)CNC(=O)[C@H](CCC(=O)O)NC(=O)[C@H](C)NC(=O)[C@H](Cc1c[nH]cn1)NC(=O)CNC(=O)CNC(=O)[C@@H](NC(=O)[C@@H]1CCCN1C(=O)[C@@H](NC(=O)CN)[C@@H](C)CC)[C@@H](C)CC)[C@@H](C)O)[C@@H](C)O)C(C)C)C(=O)N[C@@H](C)C(=O)N[C@@H](Cc1c[nH]c2ccccc12)C(=O)N[C@@H](CC(C)C)C(=O)N[C@H](C(=O)N[C@@H](CCCCN)C(=O)NCC(=O)N[C@@H](CCCNC(=N)N)C(=O)NCC(=O)NCC(=O)N[C@@H](CCCCN)C(=O)NCC(=O)N[C@H]1CSSC[C@@H](C(=O)N[C@@H](Cc2ccccc2)C(=O)O)NC(=O)[C@H]([C@@H](C)CC)NC(=O)[C@@H]2CCCN2C(=O)[C@@H]2CCCN2C(=O)[C@H]([C@@H](C)CC)NC(=O)[C@H](CO)NC(=O)[C@H](CCCCN)NC(=O)[C@H]([C@@H](C)O)NC(=O)[C@H](C)NC(=O)[C@H](CCCNC(=N)N)NC(=O)CNC1=O)C(C)C [D-GLP-1-BT9]	100.0 ± 0.0%	101 ± 1.2%	98.7 ± 0.6%	98.8 ± 2.3%	100 ± 6.5%	94 ± 2%	100.0 ± 0.0%	88.4 ± 2.3%	79.3 ± 2.6%	69.8 ± 2.6%	58.6 ± 0.7%	90.3 ± 1.9%	92.2 ± 3.7%	97.3 ± 1%	94 ± 1.5%	94.9 ± 1.8%	88.7 ± 3%	90.8 ± 3.6%	88.4 ± 3.9%	54.9 ± 3.8%	remaining at 0.05 h, 60 μM (chymotrypsin): 43.3 ± 7%; remaining at 0.075 h, 60 μM (chymotrypsin): 34.5 ± 7.4%; remaining at 0.1 h, 60 μM (chymotrypsin): 27.1 ± 2.9%; remaining at 0.15 h, 60 μM (chymotrypsin): 17.4 ± 4.9%; Remaining peak area (%)/human serum [1]: 100.0 ± 0.0%; serum stability (in words) [1]: good serum stability; remaining at 0.5 h, 0.03 mM [1]: 80.4 ± 4%; remaining at 2 h, 0.03 mM [1]: 53.6 ± 7.6%; remaining at 4 h, 0.03 mM [1]: 46.5 ± 3.5%; remaining at 8 h, 0.03 mM [1]: 7.2 ± 1.3%; remaining at 12 h, 0.03 mM [1]: 9.1 ± 3.9%
CC[C@H](C)[C@H](NC(=O)[C@H](Cc1ccccc1)NC(=O)[C@H](CCC(=O)O)NC(=O)[C@H](CCCCN)NC(=O)[C@H](C)NC(=O)[C@H](C)NC(=O)[C@H](CCC(N)=O)NC(=O)CNC(=O)[C@H](CCC(=O)O)NC(=O)[C@H](CC(C)C)NC(=O)[C@H](Cc1ccc(O)cc1)NC(=O)[C@H](CO)NC(=O)[C@H](CO)NC(=O)[C@@H](NC(=O)[C@H](CC(=O)O)NC(=O)[C@H](CO)NC(=O)[C@@H](NC(=O)[C@H](Cc1ccccc1)NC(=O)[C@@H](NC(=O)CNC(=O)[C@H](CCC(=O)O)NC(=O)[C@H](C)NC(=O)[C@H](Cc1c[nH]cn1)NC(=O)CNC(=O)CNC(=O)[C@H](CCCNC(=N)N)NC(=O)[C@H](CO)NC(=O)[C@H](Cc1ccccc1)NC(=O)[C@H](CCCNC(=N)N)NC(=O)[C@H](CCC(N)=O)NC(=O)CNC(=O)CNC(=O)[C@H](Cc1ccccc1)NC(=O)[C@@H]1CSSC[C@H](N)C(=O)NCC(=O)N[C@@H](CCCNC(=N)N)C(=O)N[C@@H](C)C(=O)N[C@@H]([C@@H](C)O)C(=O)N[C@@H](CCCCN)C(=O)N[C@@H](CO)C(=O)N[C@@H]([C@@H](C)CC)C(=O)N2CCC[C@H]2C(=O)N2CCC[C@H]2C(=O)N[C@@H]([C@@H](C)CC)C(=O)N1)[C@@H](C)O)[C@@H](C)O)C(C)C)C(=O)N[C@@H](C)C(=O)N[C@@H](Cc1c[nH]c2ccccc12)C(=O)N[C@@H](CC(C)C)C(=O)N[C@H](C(=O)N[C@@H](CCCCN)C(=O)NCC(=O)N[C@@H](CCCNC(=N)N)C(=O)NCC(=O)NCC(=O)N[C@@H](CCCCN)C(=O)O)C(C)C [BT9-N-GLP-1]	100.0 ± 0.0%	92.5 ± 1.5%	88 ± 1.8%	79.4 ± 2.2%	76.1 ± 1.4%	71.2 ± 2.1%	100.0 ± 0.0%	76.4 ± 1.1%	63.5 ± 1.9%	47 ± 4.3%	41.8 ± 2.7%	90.8 ± 0.5%	90.4 ± 2%	91 ± 2.1%	91.1 ± 3%	90.9 ± 3.1%	86.6 ± 3.5%	86.5 ± 3.5%	74.4 ± 2.6%	77.1 ± 1.8%	remaining at 0.05 h, 60 μM (chymotrypsin): 57.7 ± 2%; remaining at 0.075 h, 60 μM (chymotrypsin): 50.4 ± 3.2%; remaining at 0.1 h, 60 μM (chymotrypsin): 41.2 ± 3.1%; remaining at 0.15 h, 60 μM (chymotrypsin): 26 ± 2.9%
